Experiments:
GFAP = GFAP protein level in brain, capillary-based immunoassay; assay type: in vivo, mouse; settings: aged 3xTg-AD female mice; TP-064 30 mg/kg, 7 days, IP or PRMT4-AAV
Procedure: (§1) Leukocytes velocity measurements were performed by linescans (512 lines/sec). *p<0.05 compared to aged 3xTg-AD male or C57 female evaluated by unpaired t-test. FIGS. 18A and 18B are capillary-based immunoassay and associated graphs showing PRMT4 inhibitor (TP-064) or AAV knockdown of PRMT4 reduced GFAP levels in aged 3xTg-AD female mice. Glial fibrillary acidic protein (GFAP, 55 kDa) was increased in aged 3xTg-AD female mice v. C57, which indicates neuroinflammation, but reversed with TP-064 (30 mg/kg, 7 days, IP) or PRMT4-AAV treatment in cortex, shown in FIG. 18A, and hippocampus, shown in FIG. 18B. Protein level was measured by capillary-based immunoassay and normalized to total protein. *p<0.05 as compared to C57, #p<0.05 v. 3xTg-AD evaluated by one-way ANOVA with Tukey's post-hoc analyses.
Capillary-phoresis immunoassay via ProteinSimple®: Quantification of all protein targets was achieved using Simple Western analysis in a Jess™ apparatus per the manufacturer's protocol (ProteinSimple, Bio-techne, Minneapolis, MN). […] Following homogenization and centrifugation (10,000×g, 5 min, 4° C.), protein concentration was determined in tissue protein supernatant samples using DC Protein Assay (Cat. No. 5000112, Bio-Rad Laboratories, Hercules, California) according to manufacturer instructions. […]

ICAM-1 = ICAM-1 level, protein chip assay; assay type: in vivo, mouse; settings: aged 3xTg-AD female mice; cortex and hippocampus; 30 mg/kg, 7 days, IP
Procedure: FIGS. 19A-19F are six graphs showing PRMT4 inhibitor (TP-064) reduced ICAM-1, VCAM-1 and enhanced E-Cadherin protein levels in aged female 3xTg-AD mice. In FIGS. 19A-19D, aged 3xTg-AD female mice v. […] Adhesion molecules were assessed via protein chip assay in the cortex and hippocampus. * p<0.05 evaluated by one-way ANOVA with Tukey's post-hoc analyses.

aged 3xTg-AD female mice [1] = test: BBB leakage: 40 kDa FITC-dextran in perivascular space; assay type: in vivo, mouse; settings: 30 min after FITC-dextran
From the text: FIGS. 14A-14C show BBB leakage is reduced with specific PRMT4 inhibitor (TP-064) or AAV knockdown of PRMT4 in aged 3xTg-AD female mice. Aged female 3xTg-AD mice had higher levels of 40 kDa FITC-dextran in the perivascular space v. C57 controls. This was reduced with administration of PRMT inhibitor (TP-064) or AAV knockdown of PRMT4. […] FIG. 14B is a schematic representation of one of the disclosed experimental paradigms. […] C57, #p<0.05 v. 3xTg-AD female, evaluated by one-way ANOVA with Tukey's post-hoc analysis.

aged 3xTg-AD female mice [2] = test: Leukocyte rolling velocity, two-photon laser scanning microscopy; assay type: in vivo, mouse
Procedure: FIGS. 17A-17D show leukocyte rolling velocity was reduced in aged 3xTg-AD female mice.
as §1

[3] = Toxicity: blood counts, liver enzymes, kidney function; assay type: in vivo, mouse
From the text: The inventors have on-going studies to screen for major organ toxicity. Plasma liver enzymes (ALT/AST) and kidney function were normal in TP-064-treated mice.

[4] = test system: methylation of H3 (1-25) and MED12; settings: in cell; cited from earlier work

CNCCN1CCC(c2cc(CN(C)C(=O)c3cccc(Oc4ccccc4)c3)ccn2)CC1 [TP-064, N-Methyl-N-((2-(1-(2-(methylamino)ethyl)piperidin-4-yl)pyridin-4-yl)methyl)-3-phenoxybenzamide]
GFAP level in cortex (GFAP): reduced
GFAP level in hippocampus (GFAP): reduced
ICAM-1 level (ICAM-1): decreased
40 kDa FITC-dextran in the perivascular space (BBB leakage) (aged 3xTg-AD female mice [1]): reduced
leukocyte rolling velocity (aged 3xTg-AD female mice [2]): increased
complete blood counts ([3]; mice treated 7 days): no abnormalities
Plasma liver enzymes (ALT/AST) ([3]; treated mice): normal
kidney function ([3]; treated mice): normal
methylation of H3 (1-25) and MED12 [4]: inhibits

Reference: patent US20240238268A1, “TREATMENTS AND METHODS FOR TREATING ALZHEIMER'S DISEASE” (Board of Supervisors of Louisiana State University and …, priority 2021, published 2024)
